Results on one compound are retold here after patent US12215387B2, “Biomarker predictive of responsiveness to alpha 7 nicotinic acetylcholine receptor activator treatment” (Novartis AG, priority 2012, dated 2025).

This test concerns patients with schizophrenia. The test is described as follows: Continuous Paired Associates Learning (CPAL) test of the CogState schizophrenia battery, by CYP1A2 rs2069514 genotype. The test is classed as in vivo, human. The text has this: To measure the effect of alpha 7 nicotinic acetylcholine receptor activator treatment on the cognitive skills of schizophrenic patients, an adequate cognitive test battery (CogState™) with short duration (as described in detail below) was applied allowing multiple time points measurements during the treatment period (Pietrzak, et al 2009; Maruff, et al 2009).
The CPAL task is a validated test that assesses visual episodic memory (associate learning). This test has been used previously in schizophrenia. Before beginning this task, the test supervisor reads the full instructions to the patient from the test supervisor script. On the CPAL test, participants must learn a series of associations between a set of difficult to verbalize patterns and locations. In the presentation phase of the task, the pattern appears at the location and the subject is required to acknowledge that they have seen the pattern by touching the location at which it appears. At this stage of the task the patient will also see that there are two locations at which no target appears (distractor locations). Patterns are presented, in random order. However, once presented the pattern remains at the same location throughout the task. In the learning phase of the task, patients must place each of the eight patterns in their correct locations. They must do this in six rounds. For the first round, one of the patterns is presented in the centre location and the subject is required to remember the location at which it had been shown. They indicate the location by touching it. If they touch the incorrect location, a visual and audible signal occurs (a red cross appears over the location and a buzzer sound is presented). The patient is then required to choose a second location. This process continues until the patient has correctly placed all […] of the targets in their correct locations. Once all eight patterns have been placed correctly, the second round begins. In the second round the patterns remain in the same locations, but their order of presentation in the centre of the screen is different to that of the first round (randomized). The process of placing each target in the correct location proceeds as it did in the first round. When the second round is complete, the same process is repeated as the rounds progress the number of errors made in placing the patterns in their correct locations reduces. Administration time is approximately 5 minutes in healthy volunteers. Patients with Schizophrenia would be expected to complete the task within about 12 minutes.
The assessment of activity was obtained from a statistical analysis of the post dose Area Under the Effect Curve (AUEC) 4-10 on CPAL as follows: variables were separately analyzed by means of a linear mixed effect model adjusted for the period-specific baseline value for the scale, the treatment group, the period, and the sequence as fixed effects, and for the patient as a random effect. The period-specific baseline value for the scale was obtained from the average of the period-specific Day −1 values and from the pre-dose value. The mean treatment difference (and its 95% CI) between each B-5 dose group and placebo was obtained from the model. The effect size was obtained by dividing the mean treatment difference (and its 95% CI) by the square root of twice the estimated variance of the residual error. Activity, as defined in the paragraph above, was assessed from the effect size of CPAL.
In an attempt to identify a subset of patients who respond to B-5 treatment, a study in a population of 29 individuals using the CPAL assessment was conducted. The purpose was to investigate the relationship between the genetic variants rs2069514 (SEQ IDs NO. 1 and 2) in the CYP1A2 gene and B-5 efficacy in the study. In the study, B-5 mono-fumarate was used in the form of hard gelatin capsules as described in Example E. […]

The structures appear in SMILES notation.

`Cc1ccc(-c2ccc(O[C@H]3CN4CCC3CC4)cn2)cc1` [B-5, (R)-3-(6-p-tolyl-pyridin-3-yloxy)-1-aza-bicyclo[2.2.2]octane]: the “CPAL - AUC4-10 Estimated mean AUC 4-10” value is, setting by setting: (CYP1A2 genotype GG (n = 15), B-5 2 mg) 414.75 Total # errors × Hours; (CYP1A2 genotype GG (n = 15), B-5 15 mg) 481.4 Total # errors × Hours; (CYP1A2 genotype GG (n = 15), B-5 100 mg) 457.45 Total # errors × Hours; (CYP1A2 genotypes AA + AG (n = 14), B-5 2 mg) 411.15 Total # errors × Hours; (CYP1A2 genotypes AA + AG (n = 14), B-5 15 mg) 372.82 Total # errors × Hours; (CYP1A2 genotypes AA + AG (n = 14), B-5 100 mg) 384.9 Total # errors × Hours. For the same compound, the “CPAL - AUC4-10 Placebo - B-5 Effect size” value is on record as 0.15 (CYP1A2 genotype GG (n = 15), B-5 2 mg, P-value 0.59); −0.12 (CYP1A2 genotype GG (n = 15), B-5 15 mg, P-value 0.6706); −0.02 (CYP1A2 genotype GG (n = 15), B-5 100 mg, P-value 0.9344); 0.68 (CYP1A2 genotypes AA + AG (n = 14), B-5 2 mg, P-value 0.018); 0.91 (CYP1A2 genotypes AA + AG (n = 14), B-5 15 mg, P-value 0.0023); 0.83 (CYP1A2 genotypes AA + AG (n = 14), B-5 100 mg, P-value 0.0043). In addition, the “improvement on cognitive function” value (patients homozygous rs2069514-G/G) is recorded as “did not show any significant improvement”. Further, the “response on visual learning and memory (CPAL) compared to placebo” value (patients rs2069514 A/A or A/G, 2 mg p=0.018, 15 mg p=0.0023, 100 mg p=0.0043) is “significant response”.
